# PMC11562961, “An activity-based probe for antimicrobial target DXP synthase, a thiamin diphosphate-dependent enzyme” (Frontiers in chemical biology, 2024)
# Biological target: T1, 1-deoxy-D-xylulose 5-phosphate synthase (DXPS) (Escherichia coli, UniProt P77488)
# T1 construct: gene dxs
# T1 sequence (P77488 2-620): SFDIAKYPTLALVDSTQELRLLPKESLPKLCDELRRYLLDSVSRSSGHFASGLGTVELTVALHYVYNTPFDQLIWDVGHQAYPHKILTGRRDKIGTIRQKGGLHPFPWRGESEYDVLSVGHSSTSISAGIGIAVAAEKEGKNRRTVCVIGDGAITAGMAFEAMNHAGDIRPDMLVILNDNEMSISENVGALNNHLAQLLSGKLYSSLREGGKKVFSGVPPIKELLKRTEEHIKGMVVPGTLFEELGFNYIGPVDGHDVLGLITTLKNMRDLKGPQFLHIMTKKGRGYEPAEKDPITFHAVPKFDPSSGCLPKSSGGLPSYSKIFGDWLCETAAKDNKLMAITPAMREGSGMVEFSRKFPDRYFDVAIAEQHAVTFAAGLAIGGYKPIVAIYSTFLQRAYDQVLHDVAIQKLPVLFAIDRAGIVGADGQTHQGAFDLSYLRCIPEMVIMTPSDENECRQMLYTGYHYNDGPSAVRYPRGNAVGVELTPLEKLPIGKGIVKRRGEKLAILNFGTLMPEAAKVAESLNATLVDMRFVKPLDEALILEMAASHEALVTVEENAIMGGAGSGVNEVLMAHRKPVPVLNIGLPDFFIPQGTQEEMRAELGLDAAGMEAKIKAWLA
# Assay: DXPS-IspC coupled assay (Morrison Ki); also CD detection of the PLThDP adduct and photo-crosslink in-gel fluorescence labeling
# Type: biochemical
smiles,measurement,value
"C#CCCC1(CCOP(=O)(O)C(C)=O)N=N1 [compound 1, ABP 1]",Ki,1600 ± 220 nM
